According to patent publication US9809625B2, “Immunomodulators” (BRISTOL-MYERS SQUIBB COMPANY, priority 2015, dated 2017):
pIC50: −log10 of the molar value. Bridge positions count the residues as written; N and C are the ends. Square brackets hold non-standard residues; d marks the D form. Peptide text beside a SMILES is read from it. * marks the point of attachment. ξ: configuration not given here. Trp(1-CH2COOH) = N[C@@H](Cc1cn(CC(=O)O)c2ccccc12)C(=O)O; Hyp = O=C(O)[C@@H]1C[C@@H](O)CN1; Piperazinyl(4-Me) = CN1CCN(*)CC1; ξW = NC(Cc1c[nH]c2ccccc12)C(=O)O; NH(3-picolyl) = c1cncc(CN*)c1; NMeNle = CCCC[C@H](NC)C(=O)O; Morpholide = C1CN(*)CCO1; NMeA = CN[C@@H](C)C(=O)O; Piperidide = C1CCN(*)CC1; Pyrrolidide = C1CCN(*)C1; Dab = NCC[C@H](N)C(=O)O; X4 = [N-]=[N+]=NCCCCCN*; Dap = NC[C@H](N)C(=O)O; NHBn = c1ccc(CN*)cc1; NHCH2CH2OMe = COCCN*; N(Me)nPr = CCCN(C)*; NHcBu = C1CC(N*)C1; NHcPr = C1CC1N*; Sar = CNCC(=O)O

Target: T1, PD-1-Ig binding to PD-L1-TVMV-His (PD-L1-His) (Homo sapiens, UniProt Q9NZQ7)
T1 construct: hPDL1(19-239)-TVMV-His; TVMV protease cleavage site (C); made in house; host or cells: HEK293T
T1 sequence (Q9NZQ7 with tags, fused parts or gaps): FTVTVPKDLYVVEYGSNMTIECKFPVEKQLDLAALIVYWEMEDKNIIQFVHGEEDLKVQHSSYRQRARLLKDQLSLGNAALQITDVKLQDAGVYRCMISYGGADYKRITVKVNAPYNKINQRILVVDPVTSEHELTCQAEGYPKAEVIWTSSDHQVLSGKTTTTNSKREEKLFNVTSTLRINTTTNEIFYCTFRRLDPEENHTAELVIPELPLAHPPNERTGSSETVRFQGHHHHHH
Experiment: PD-1/PD-L1 Homogenous Time-Resolved Fluorescence (HTRF) binding assay
Conditions: PD-1-Ig (20 nM)/PD-L1-His (10 nM), range classes
Source text: Methods for Testing the Ability of Macrocyclic Peptides to Compete for the Binding of PD-1 to PD-L1 Using Homogenous Time-Resolved Fluorescence (HTRF) Binding Assays
The ability of the macrocyclic peptides of the present disclosure to bind to PD-L1 was investigated using a PD-1/PD-L1 Homogenous Time-Resolved Fluorescence (HTRF) binding assay.
Homogenous Time-Resolved Fluorescence (HTRF) Assays of Binding of Soluble PD-1 to Soluble PD-L1. Soluble PD-1 and soluble PD-L1 refers to proteins with carboxyl-end truncations that remove the transmembrane-spanning regions and are fused to heterologous sequences, specifically the Fc portion of the human immunoglobuling G sequence (Ig) or the hexahistidine epitope tag (His). All binding studies were performed in an HTRF assay buffer consisting of dPBS supplemented with 0.1% (w/v) bovine serum albumin and 0.05% (v/v) Tween-20. For the PD-1-Ig/PD-L1-His binding assay, inhibitors were pre-incubated with PD-L1-His (10 nM final) for 15 m in 4 μl of assay buffer, followed by addition of PD-1-Ig (20 nM final) in 1 μl of assay buffer and further incubation for 15 m. PD-L1 fusion proteins from either human, cynomologous macaques, mouse, or other species were used. HTRF detection was achieved using europium crypate-labeled anti-Ig monoclonal antibody (1 nM final) and allophycocyanin (APC) labeled anti-His monoclonal antibody (20 nM final). Antibodies were diluted in HTRF detection buffer and 5 μl was dispensed on top of binding reaction. The reaction was allowed to equilibrate for 30 minutes and signal (665 nm/620 nm ratio) was obtained using an EnVision fluorometer. Additional binding assays were established between PD-1-Ig/PD-L2-His (20 and 5 nM, respectively), CD80-His/PD-L1-Ig (100 and 10 nM, respectively) and CD80-His/CTLA4-Ig (10 and 5 nM, respectively). Binding/competition studies between biotinylated Compound No. 71 and human PD-L1-His were performed as follows. Macrocyclic peptide inhibitors were pre-incubated with PD-L1-His (10 nM final) for 60 minutes in 4 μl of assay buffer followed by addition of biotinylated Compound No. 71 (0.5 nM final) in 1 μl of assay buffer. Binding was allowed to equilibrate for 30 minutes followed by addition of europium crypated labeled Streptavidin (2.5 pM final) and APC-labeled anti-His (20 nM final) in 5 μl of HTRF buffer. The reaction was allowed to equilibrate for 30 m and signal (665 nm/620 nm ratio) was obtained using an EnVision fluorometer.
Recombinant Proteins. Carboxyl-truncated human PD-1 (amino acids 25-167) with a C-terminal human Ig epitope tag [hPD-1 (25-167)-3S-IG] and human PD-L1 (amino acids 18-239) with a C-terminal His epitope tag [hPD-L1(19-239)-tobacco vein mottling virus protease cleavage site (TVMV)-His] were expressed in HEK293T cells and purified sequentially by recombinant Protein A affinity chromatography and size exclusion chromatography. Human PD-L2-His (Sino Biologicals), CD80-His (Sino Biologicals), CTLA4-Ig (RnD Systems) were all obtained through commercial sources.

Row | SMILES | pIC50
1 | CCCC[C@H]1C(=O)N(C)[C@@H](CCCC)C(=O)N[C@@H](CC(C)C)C(=O)N[C@H](C(=O)NCC(=O)NCc2ccccc2)CSCC(=O)N[C@@H](Cc2ccc(O)cc2)C(=O)N(C)[C@@H](C)C(=O)N[C@@H](CC(N)=O)C(=O)N2CCC[C@H]2C(=O)N[C@@H](CN)C(=O)N[C@@H](CC(C)C)C(=O)N2C[C@H](O)C[C@H]2C(=O)N[C@@H](Cc2c[nH]c3ccccc23)C(=O)N[C@@H](CCN)C(=O)N[C@@H](Cc2cn(CC(=O)O)c3ccccc23)C(=O)N1C [Example 13080] ({CH2CO}-Y[NMeA]NP[Dap]L[Hyp]W[Dab][Trp(1-CH2COOH)][NMeNle][NMeNle]LCG-NHBn; thioether N-14) | 8.00 to 8.40
2 | CCCC[C@H]1C(=O)N(C)[C@@H](CCCC)C(=O)N[C@@H](CC(C)C)C(=O)N[C@H](C(=O)NCC(=O)NCCCCCN=[N+]=[N-])CSCC(=O)N[C@@H](Cc2ccc(O)cc2)C(=O)N(C)[C@@H](C)C(=O)N[C@@H](CC(N)=O)C(=O)N2CCC[C@H]2C(=O)N[C@@H](CO)C(=O)N[C@@H](CCC(N)=O)C(=O)N2C[C@H](O)C[C@H]2C(=O)N[C@@H](Cc2c[nH]c3ccccc23)C(=O)N[C@@H](CO)C(=O)N[C@@H](Cc2c[nH]c3ccccc23)C(=O)N1C [Example 13081] ({CH2CO}-Y[NMeA]NPSQ[Hyp]WSW[NMeNle][NMeNle]LCG-X4; thioether N-14) | 7.22 to 8.00
3 | CCCC[C@H]1C(=O)N(C)[C@@H](CCCC)C(=O)N[C@@H](CC(C)C)C(=O)N[C@H](C(=O)NCC(=O)NCCOC)CSCC(=O)N[C@@H](Cc2ccc(O)cc2)C(=O)N(C)[C@@H](C)C(=O)N[C@@H](CC(N)=O)C(=O)N2CCC[C@H]2C(=O)N[C@@H](CN)C(=O)N[C@@H](CC(C)C)C(=O)N2C[C@H](O)C[C@H]2C(=O)N[C@@H](Cc2c[nH]c3ccccc23)C(=O)NCC(=O)N[C@@H](Cc2c[nH]c3ccccc23)C(=O)N1C [Example 13082] ({CH2CO}-Y[NMeA]NP[Dap]L[Hyp]WGW[NMeNle][NMeNle]LCG-NHCH2CH2OMe; thioether N-14) | 7.22 to 8.00
4 | CCCC[C@H]1C(=O)N(C)[C@@H](CCCC)C(=O)N[C@@H](CC(C)C)C(=O)N[C@H](C(=O)NCC(=O)N(C)CCC)CSCC(=O)N[C@@H](Cc2ccc(O)cc2)C(=O)N(C)[C@@H](C)C(=O)N[C@@H](CC(N)=O)C(=O)N2CCC[C@H]2C(=O)N[C@@H](CN)C(=O)N[C@@H](CC(C)C)C(=O)N2C[C@H](O)C[C@H]2C(=O)N[C@@H](Cc2c[nH]c3ccccc23)C(=O)NCC(=O)N[C@@H](Cc2c[nH]c3ccccc23)C(=O)N1C [Example 13084] ({CH2CO}-Y[NMeA]NP[Dap]L[Hyp]WGW[NMeNle][NMeNle]LCG-{N(Me)nPr}; thioether N-14) | 7.22 to 8.00
5 | CCCC[C@H]1C(=O)N(C)[C@@H](CCCC)C(=O)N[C@@H](CC(C)C)C(=O)N[C@H](C(=O)NCC(=O)N2CCCC2)CSCC(=O)N[C@@H](Cc2ccc(O)cc2)C(=O)N(C)[C@@H](C)C(=O)N[C@@H](CC(N)=O)C(=O)N2CCC[C@H]2C(=O)N[C@@H](CN)C(=O)N[C@@H](CC(C)C)C(=O)N2C[C@H](O)C[C@H]2C(=O)N[C@@H](Cc2c[nH]c3ccccc23)C(=O)NCC(=O)N[C@@H](Cc2c[nH]c3ccccc23)C(=O)N1C [Example 13085] ({CH2CO}-Y[NMeA]NP[Dap]L[Hyp]WGW[NMeNle][NMeNle]LCG-Pyrrolidide; thioether N-14) | 7.22 to 8.00
6 | CCCC[C@H]1C(=O)N(C)[C@@H](CCCC)C(=O)N[C@@H](CC(C)C)C(=O)N[C@H](C(=O)NCC(=O)N2CCCCC2)CSCC(=O)N[C@@H](Cc2ccc(O)cc2)C(=O)N(C)[C@@H](C)C(=O)N[C@@H](CC(N)=O)C(=O)N2CCC[C@H]2C(=O)N[C@@H](CN)C(=O)N[C@@H](CC(C)C)C(=O)N2C[C@H](O)C[C@H]2C(=O)N[C@@H](Cc2c[nH]c3ccccc23)C(=O)NCC(=O)N[C@@H](Cc2c[nH]c3ccccc23)C(=O)N1C [Example 13086] ({CH2CO}-Y[NMeA]NP[Dap]L[Hyp]WGW[NMeNle][NMeNle]LCG-Piperidide; thioether N-14) | 8.00 to 8.40
7 | CCCC[C@H]1C(=O)N(C)[C@@H](CCCC)C(=O)N[C@@H](CC(C)C)C(=O)N[C@H](C(=O)NCC(=O)N2CCOCC2)CSCC(=O)N[C@@H](Cc2ccc(O)cc2)C(=O)N(C)[C@@H](C)C(=O)N[C@@H](CC(N)=O)C(=O)N2CCC[C@H]2C(=O)N[C@@H](CN)C(=O)N[C@@H](CC(C)C)C(=O)N2C[C@H](O)C[C@H]2C(=O)N[C@@H](Cc2c[nH]c3ccccc23)C(=O)NCC(=O)N[C@@H](Cc2c[nH]c3ccccc23)C(=O)N1C [Example 13087] ({CH2CO}-Y[NMeA]NP[Dap]L[Hyp]WGW[NMeNle][NMeNle]LCG-Morpholide; thioether N-14) | 7.22 to 8.00
8 | CCCC[C@H]1C(=O)N(C)[C@@H](CCCC)C(=O)N[C@@H](CC(C)C)C(=O)N[C@H](C(=O)NCC(=O)N2CCN(C)CC2)CSCC(=O)N[C@@H](Cc2ccc(O)cc2)C(=O)N(C)[C@@H](C)C(=O)N[C@@H](CC(N)=O)C(=O)N2CCC[C@H]2C(=O)N[C@@H](CN)C(=O)N[C@@H](CC(C)C)C(=O)N2C[C@H](O)C[C@H]2C(=O)N[C@@H](Cc2c[nH]c3ccccc23)C(=O)NCC(=O)N[C@@H](Cc2c[nH]c3ccccc23)C(=O)N1C [Example 13089] ({CH2CO}-Y[NMeA]NP[Dap]L[Hyp]WGW[NMeNle][NMeNle]LCG-{Piperazinyl(4-Me)}; thioether N-14) | 7.22 to 8.00
9 | CCCC[C@H]1C(=O)N(C)[C@@H](CCCC)C(=O)N[C@@H](CC(C)C)C(=O)N[C@H](C(=O)N(C)CC(N)=O)CSCC(=O)N[C@@H](Cc2ccc(O)cc2)C(=O)N(C)[C@@H](C)C(=O)N[C@@H](CC(N)=O)C(=O)N2CCC[C@H]2C(=O)N[C@@H](CN)C(=O)N[C@@H](CC(C)C)C(=O)N2C[C@H](O)C[C@H]2C(=O)N[C@@H](Cc2c[nH]c3ccccc23)C(=O)NCC(=O)N[C@@H](Cc2c[nH]c3ccccc23)C(=O)N1C [Example 13090] ({CH2CO}-Y[NMeA]NP[Dap]L[Hyp]WGW[NMeNle][NMeNle]LC[Sar]-NH2; thioether N-14) | 8.00 to 8.40
10 | CCCC[C@H]1C(=O)N(C)[C@@H](CCCC)C(=O)N[C@@H](CC(C)C)C(=O)N[C@H](C(=O)NCC(=O)NC2CC2)CSCC(=O)N[C@@H](Cc2ccc(O)cc2)C(=O)N(C)[C@@H](C)C(=O)N[C@@H](CC(N)=O)C(=O)N2CCC[C@H]2C(=O)N[C@@H](CN)C(=O)N[C@@H](CC(C)C)C(=O)N2C[C@H](O)C[C@H]2C(=O)N[C@@H](Cc2c[nH]c3ccccc23)C(=O)NCC(=O)NC(Cc2c[nH]c3ccccc23)C(=O)N1C (stereo partly drawn) [Example 13091] ({CH2CO}-Y[NMeA]NP[Dap]L[Hyp]WG[ξW][NMeNle][NMeNle]LCG-NHcPr; thioether N-14) | 8.00 to 8.40
11 | CCCC[C@H]1C(=O)N(C)[C@@H](CCCC)C(=O)N[C@@H](CC(C)C)C(=O)N[C@H](C(=O)NCC(=O)NC2CCC2)CSCC(=O)N[C@@H](Cc2ccc(O)cc2)C(=O)N(C)[C@@H](C)C(=O)N[C@@H](CC(N)=O)C(=O)N2CCC[C@H]2C(=O)N[C@@H](CN)C(=O)N[C@@H](CC(C)C)C(=O)N2C[C@H](O)C[C@H]2C(=O)N[C@@H](Cc2c[nH]c3ccccc23)C(=O)NCC(=O)N[C@@H](Cc2c[nH]c3ccccc23)C(=O)N1C [Example 13092] ({CH2CO}-Y[NMeA]NP[Dap]L[Hyp]WGW[NMeNle][NMeNle]LCG-NHcBu; thioether N-14) | 7.22 to 8.00
12 | CCCC[C@H]1C(=O)N(C)[C@@H](CCCC)C(=O)N[C@@H](CC(C)C)C(=O)N[C@H](C(=O)NCC(=O)NCc2cccnc2)CSCC(=O)N[C@@H](Cc2ccc(O)cc2)C(=O)N(C)[C@@H](C)C(=O)N[C@@H](CC(N)=O)C(=O)N2CCC[C@H]2C(=O)N[C@@H](CN)C(=O)N[C@@H](CC(C)C)C(=O)N2C[C@H](O)C[C@H]2C(=O)N[C@@H](Cc2c[nH]c3ccccc23)C(=O)NCC(=O)NC(Cc2c[nH]c3ccccc23)C(=O)N1C (stereo partly drawn) [Example 13094] ({CH2CO}-Y[NMeA]NP[Dap]L[Hyp]WG[ξW][NMeNle][NMeNle]LCG-{NH(3-picolyl)}; thioether N-14) | 7.22 to 8.00
